From publication PMC12102759 (Protein Science : A Publication of the Protein Society, 2025)
pIC50, pKd: −log10 of the molar value.

system: G3BP1 NFT2; experiment: not given; format: binding, human; conditions: library DMS-BM; bait G3BP1 NFT2; prey CAPRIN1; AQMQGPYNFIQDSM(averaged): mean of the two overlapping peptides over the shared positions

Substance | DMS position-specific score (PSSM value) per amino-acid substitution, averaged
AQMQGPYNFIQDSM(averaged) Q2T (ATMQGPYNFIQDSM) | 0.03322
AQMQGPYNFIQDSM(averaged) Q11H (AQMQGPYNFIHDSM) | 0.008689
AQMQGPYNFIQDSM(averaged) F9F | 0.9484
AQMQGPYNFIQDSM(averaged) Y7Y | 0.5479
AQMQGPYNFIQDSM(averaged) S13F (AQMQGPYNFIQDFM) | 0.05713
AQMQGPYNFIQDSM(averaged) S13G (AQMQGPYNFIQDGM) | 0.0006715
AQMQGPYNFIQDSM(averaged) G5A (AQMQAPYNFIQDSM) | 0.003112
AQMQGPYNFIQDSM(averaged) Y7S (AQMQGPSNFIQDSM) | 0.06469
AQMQGPYNFIQDSM(averaged) G5K (AQMQKPYNFIQDSM) | 0.001793
AQMQGPYNFIQDSM(averaged) Q4L (AQMLGPYNFIQDSM) | 0.003961
AQMQGPYNFIQDSM(averaged) N8Y (AQMQGPYYFIQDSM) | 0.0098
AQMQGPYNFIQDSM(averaged) M3L (AQLQGPYNFIQDSM) | 0.03704
AQMQGPYNFIQDSM(averaged) D12D | 0.268
AQMQGPYNFIQDSM(averaged) A1A | 0.1937
AQMQGPYNFIQDSM(averaged) A1T (TQMQGPYNFIQDSM) | 0.005821
AQMQGPYNFIQDSM(averaged) F9D (AQMQGPYNDIQDSM) | 0.037
AQMQGPYNFIQDSM(averaged) I10S (AQMQGPYNFSQDSM) | 0.0008082
AQMQGPYNFIQDSM(averaged) P6H (AQMQGHYNFIQDSM) | 0.008056
AQMQGPYNFIQDSM(averaged) D12H (AQMQGPYNFIQHSM) | 0.1155
AQMQGPYNFIQDSM(averaged) I10D (AQMQGPYNFDQDSM) | 0
AQMQGPYNFIQDSM(averaged) Y7P (AQMQGPPNFIQDSM) | 0.002813
AQMQGPYNFIQDSM(averaged) F9Y (AQMQGPYNYIQDSM) | 0.002988
AQMQGPYNFIQDSM(averaged) S13L (AQMQGPYNFIQDLM) | 0.0002731
AQMQGPYNFIQDSM(averaged) Q11I (AQMQGPYNFIIDSM) | 0
AQMQGPYNFIQDSM(averaged) D12P (AQMQGPYNFIQPSM) | 0.216
AQMQGPYNFIQDSM(averaged) I10F (AQMQGPYNFFQDSM) | 0.1045
AQMQGPYNFIQDSM(averaged) M3V (AQVQGPYNFIQDSM) | 0.3519
AQMQGPYNFIQDSM(averaged) F9A (AQMQGPYNAIQDSM) | 0
AQMQGPYNFIQDSM(averaged) Q11V (AQMQGPYNFIVDSM) | 0.06659

system: USP7 MATH; experiment: not given; format: binding, human; conditions: DMS-CoV library, bait USP7 MATH, prey N, parental peptide SKQLQQSMSSADSTQA, label suffix = wt residue, displayed residue (same letter = wild type), x = no value

Substance | DMS PSSM value (matrix of displayed amino acid x peptide position)
SKQLQQSMSSADSTQA Q3Q | 1
SKQLQQSMSSADSTQA S7S | 1
SKQLQQSMSSADSTQA Q15Q | 1
SKQLQQSMSSADSTQA M8M | 1
SKQLQQSMSSADSTQA S13S | 1
SKQLQQSMSSADSTQA Q5Q | 1
SKQLQQSMSSADSTQA Q6Q | 1
SKQLQQSMSSADSTQA T14V (SKQLQQSMSSADSVQA) | 1
SKQLQQSMSSADSTQA K2V (SVQLQQSMSSADSTQA) | 1
SKQLQQSMSSADSTQA S9S | 1
SKQLQQSMSSADSTQA D12D | 1
SKQLQQSMSSADSTQA A11A | 1
SKQLQQSMSSADSTQA S1S | 1
SKQLQQSMSSADSTQA S10S | 1

target: G3BP1 NTF2 (Homo sapiens, UniProt Q13283); experiment: biochemical; format: binding; conditions: not given
Sequence (Q13283 1-139): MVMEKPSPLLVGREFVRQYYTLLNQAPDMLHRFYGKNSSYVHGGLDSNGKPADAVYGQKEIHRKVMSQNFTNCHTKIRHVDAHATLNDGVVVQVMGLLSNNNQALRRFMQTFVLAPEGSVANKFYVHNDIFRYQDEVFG

Substance | pIC50 | effect of mutation on affinity, in words
Ac-APLITFGGPSDSTGSY-NH2 [N R14L] | 4.96 | 
Ac-APRITFGGPYDSTGSY-NH2 [N S21Y] | 4.80 | 
Ac-DPRITFGGPSDSTGSY-NH2 [N A12D] | 5.00 | 
Ac-AERITFGGPSDSTGSY-NH2 [N P13E] | 4.66 | 
Ac-APRITFGGFSDSTGSY-NH2 [N P20F] | 4.36 | 
Ac-APRIEFGGPSDSTGSY-NH2 [N T15E] | 4.31 | 
Ac-APRIEFGGPSDSTGSY-NH2 [N12–26 T16E] |  | sevenfold loss of affinity
Ac-APRITFGAPSDSTGSY-NH2 [N G19A] | 5.28 | 

same assay, conditions: KD

Substance | pKd
Ac-APLITFGGPSDSTGSY-NH2 [N R14L] | 5.52
Ac-APRITFGGPYDSTGSY-NH2 [N S21Y] | 5.33
Ac-DPRITFGGPSDSTGSY-NH2 [N A12D] | 5.57
Ac-AERITFGGPSDSTGSY-NH2 [N P13E] | 5.17
Ac-APRITFGGPSDSTGSY-NH2 [N12–26] | 5.70
Ac-APRITFGGPSDSTGSY-NH2 [N wt] | 5.64
Ac-APRITFGGFSDSTGSY-NH2 [N P20F] | 4.85
Ac-APRIEFGGPSDSTGSY-NH2 [N12–26 T16E] | 4.80
Ac-APRITFGAPSDSTGSY-NH2 [N G19A] | 5.96

target: NSP3 SUD-M (Severe acute respiratory syndrome coronavirus 2, UniProt P0DTC1); experiment: biochemical; format: binding, SARS‐CoV‐2; conditions: not given

Substance | pIC50 | pKd
Ac-QFTEEDLMFVLYGVTPY-NH2 [PRDM14 H203M] | 3.91 | 4.89
Ac-QFTEEALHFVLYGVTPY-NH2 [PRDM14 D201A] | 2.98 | 3.65
Ac-QFTEEDLHFVLEGVTPY-NH2 [PRDM14 Y207E] | 3.61 | 4.40

target: NSP9 (Severe acute respiratory syndrome coronavirus 2, UniProt P0DTC1); experiment: biochemical; format: binding, SARS‐CoV‐2; conditions: not given

Substance | pIC50 | pKd
Ac-QGVWLGAVEPWEPLLD-NH2 [NOTCH4 A1608V P1613V] | 4.48 | 5.23
Ac-QGAWLGIPEPWEPLLD-NH2 [NOTCH4 A1612I] | 3.83 | 4.30
Ac-QGAWLGAPEPYEPLLD-NH2 [NOTCH4 W1616Y] | 3.78 | 4.24
Ac-QGSWLGAPEPWEPLLD-NH2 [NOTCH4 A1608S] | 3.23 | 3.67
Ac-QGAWLDAPEPWEPLLD-NH2 [NOTCH4 G1611D] |  | 3.80
Ac-QGAWLGAPEPWEPLLD-NH2 [NOTCH4 wt] | 3.69 | 4.14
Ac-QGAWLPAPEPWEPLLD-NH2 [NOTCH4 G1611P] |  | 3.39
Ac-QGVWLGAPEPWEPLLD-NH2 [NOTCH4 A1608V] | 4.23 | 4.80
Ac-QGAWLGAVEPWEPLLD-NH2 [NOTCH4 P1613V] | 3.98 | 4.48
Ac-QGAWLGAPEPWFPLLD-NH2 [NOTCH4 E1617F] | 3.96 | 4.46
Ac-QGAWLGAPVPWEPLLD-NH2 [NOTCH4 E1614V] | 3.75 | 
Ac-QGAWLGAPEYWEPLLD-NH2 [NOTCH4 P1615Y] | 3.82 | 4.29
